Three compounds from US20200291100A1, “TREATMENT OF AGE-RELATED AND MITOCHONDRIAL DISEASES BY INHIBITION OF HIF-1 ALPHA FUNCTION” (President and Fellows of Harvard College, priority 2012, published 2020) can be followed below.

Format in all cases: cell-based, mouse
In assay [1] the test system is PGC-1α/β knockout myotubes. In words: HIF stabilizing compounds in PGC-1α/β knockout myotubes with or without SIRT1 overexpression. The conditions noted are these: SIRT1 adenovirus; 1 mM DMOG or 10 μM DFO, 12 hours. On the procedure:
Next whether the ability of SIRT1 to regulate mitochondrial function independently of PGC-1α/β is mediated by HIF-1α was tested. […] Furthermore, cells expressing a mutant allele of HIF-1α that is constitutively stabilized due to the replacement of the two hydroxylated prolines with alanines (DPA) (FIG. 7A), caused genome asynchrony similar to hypoxia and treatment with DMOG (FIG. 7B).
Primary myoblasts cells were isolated from WT, SIRT1 KO (Price et al., 2012) and PGC-1α/β KO (Zechner et al., 2010) mice as previously described (Price et al., 2012). WT and PGC-1α/β KO primary myoblasts were plated and allowed to differentiate into myotubes by replacing the media with low glucose DMEM supplemented with 2% horse serum (Sigma-Aldrich) for 4 days. After the differentiation the cells were infected with empty vector or flag-SIRT1 adenovirus as described before (Gerhart-Hines et al., 2007). Media was replaced with fresh DMEM supplemented with 2% horse serum (Sigma-Aldrich) for an additional 48 hr and, after that the cells were harvested for the different assays as described. To investigate the role of HIF-1α in genome asynchrony, PGC-1α/β KO primary myotubes were treated for 12 hours with 1 mM DMOG (Sigma) or 10 μM DFO (Sigma), 24 h after infection with empty vector of flag-SIRT1 adenovirus or after 12 h treatment with […] NMN (Sigma).
RNA from skeletal muscle tissue and C2C12 cells were extracted with RNeasy mini kit (Qiagen) according to the instructions and quantified using the NanoDrop 1000 spectrophotometer (Thermo Scientific). cDNA was synthesized with the iSCRIP cDNA synthesis kit (BioRad) using 600 ng of RNA. Quantitative RT-PCR reactions were performed using 1 μM of primers and LightCycler® 480 SYBR Green Master (Roche) on an LightCycler® 480 detection system (Roche). Calculations were performed by a comparative method (2-ΔCT) using 18S as an internal control. For mtDNA analysis, total DNA was extracted with DNeasy blood and tissue kit (Qiagen). mtDNA was amplified using primers specific for the mitochondrial cytochrome c oxidase subunit 2 (COX2) gene and normalized to genomic DNA by amplification of the ribosomal protein s18 (rps18) nuclear gene. […]
Protein extracts from tissue or C2C12 cells were obtained by lysis in ice-cold lysis buffer (150 mM NaCl, 10 mM Tris HCl (pH 7.4), 1 mM EDTA, 1 mM EGTA, 1% Triton X-100, 0.5% NP-40) supplemented with a cocktail of protease and phosphatase inhibitors (Roche). Protein content was determined by the Bradford protein assay (Biorad), and 50 μg proteins were run on SDS-PAGE under reducing conditions. […] The immunostaining was detected using horseradish peroxidase-conjugated anti-rabbit or anti-mouse immunoglobulin for 1 h at room temperature.

The test system of assay [2] is primary PGC-1α/β KO myotubes. In words: NMN with or without HIF stabilizing compounds in PGC-1α/β KO myotubes, qPCR of mitochondrially-encoded ETC genes. The conditions noted are these: HIF stabilizing compound added to NMN-treated cells; 1 mM DMOG or 10 μM DFO, 12 hours. On the procedure:
As a functional test of whether NMN reverses genome asynchrony by depleting cells of HIF-1α, primary PGC-1α/β KO myotubes were incubated with NMN in the presence and absence of the HIF stabilizing compounds DMOG and DFO. […] Primary myoblasts cells were isolated from WT, SIRT1 KO (Price et al., 2012) and PGC-1α/β KO (Zechner et al., 2010) mice as previously described (Price et al., 2012). WT and PGC-1α/β KO primary myoblasts were plated and allowed to differentiate into myotubes by replacing the media with low glucose DMEM supplemented with 2% horse serum (Sigma-Aldrich) for 4 days. After the differentiation the cells were infected with empty vector or flag-SIRT1 adenovirus as described before ([…] al., 2007). Media was replaced with fresh DMEM supplemented with 2% horse serum (Sigma-Aldrich) for an additional 48 hr and, after that the cells were harvested for the different assays as described. […] Quantitative RT-PCR reactions were performed using 1 μM of primers and LightCycler® 480 SYBR Green Master (Roche) on an LightCycler® 480 detection system (Roche). Calculations were performed by a comparative method (2-ΔCT) using 18S as an internal control. For mtDNA analysis, total DNA was extracted with DNeasy blood and tissue kit (Qiagen). mtDNA was amplified using primers specific for the mitochondrial cytochrome c oxidase subunit 2 (COX2) gene and normalized to genomic DNA by amplification of the ribosomal protein s18 (rps18) nuclear gene. Primers were designed using the IDT software (IDT) and the primer sequences can be found in Table 1.
(Quantitative PCR measures a nucleic acid by following its amplification.)

Assay [3] has as its system C2C12 cells. In words: SIRT1 inhibition with EX-527 in C2C12 cells. The conditions noted are these: 10 μM EX-527, 12 h. On the procedure:
Having shown that HIF-1α stabilization was sufficient to induce genome asynchrony, it was next tested whether it was necessary. […] Knockdown of HIF-1α in C2C12 cells treated with the SIRT1 inhibitor EX-527 prevented genome asynchrony and decline in mitochondrial function, as evidenced by the maintenance of mtDNA content (FIG. 7F), mitochondrial ETC gene expression (FIG. 7G), mitochondrial membrane potential ([…]) and ATP levels (FIG. 7I).
C2C12 cell line (ATCC) was cultured in low glucose Dulbecco's modified eagle medium (DMEM) (Invitrogen) supplemented with 10% FBS (Invitrogen) and a mix of antibiotic and antimycotic (Invitrogen). To inhibit SIRT1, cells were treated the vehicle (0.001% DMSO) or 10 μM EX-527 (Tocris) for 12 h. C2C12 myoblasts were infected with an empty or SIRT1 adenovirus as described before (Gerhart-Hines et al., 2007) and the media was replaced with fresh DMEM for additional 48 h, after that the cells were treated as described before. To test the effects of hypoxia and HIFα stabilization in genome asyncrony, C2C12 myoblasts were exposed to 1% oxygen for 16 h or treated with the vehicle (0.001% DMSO) or DMOG (Cayman) for the same period of time.

Assay [4] relates to PGC-1α/β KO myotubes. In words: EX-527 in PGC-1α/β KO myotubes reconstituted with WT or T177A/S538A PGC-1α, qPCR. The conditions noted are these: EX-527 48 h. On the procedure: RNA from skeletal muscle tissue and C2C12 cells were extracted with RNeasy mini kit (Qiagen) according to the instructions and quantified using the NanoDrop 1000 spectrophotometer (Thermo Scientific). cDNA was synthesized with the iSCRIP cDNA synthesis kit (BioRad) using 600 ng of RNA. Quantitative RT-PCR reactions were performed using 1 μM of primers and LightCycler® 480 SYBR Green Master (Roche) on an LightCycler® 480 detection system (Roche). Calculations were performed by a comparative method (2-ΔCT) using 18S as an internal control. For mtDNA analysis, total DNA was extracted with DNeasy blood and tissue kit (Qiagen). mtDNA was amplified using primers specific for the mitochondrial cytochrome c oxidase subunit 2 (COX2) gene and normalized to genomic DNA by amplification of the ribosomal protein s18 (rps18) nuclear gene. Primers were designed using the IDT software (IDT) and the primer sequences can be found in Table 1.
AMPK-DN blocked the decrease in nuclear-encoded genes observed 48 h after treatment with OHT, but not the decline in mitochondrial-encoded genes (FIG. 13G). In order to determine if this AMPK affect is through PGC-1α PGC-1α/β KO myotubes were reconstituted with either a WT PGC-1α or an AMPK insensitive version of PGC-1α (PGC-1α T177A/S538A) (FIG. 20F). […]

Assay [5] relates to primary myoblasts. In words: Lactate treatment of primary WT myoblasts, NAD+/NADH ratio and HIF-1α immunoblot. The conditions noted are these: 10 mM lactate, 24 h. From the text:
FIGS. 21A-21N provide additional data related to the content of FIG. 14. FIG. 21A depicts HIF-1α target genes (PGK-1, Glut1, PDK1 and Vegfa) expression in gastrocnemius of WT and SIRT1 KO mice. Relative expression values were normalized to WT mice (n=5). FIG. 21B depicts hypoxia response element activity in primary myoblasts isolated from WT and SIRT1 KO mice and treated with or without DMOG. Relative luciferase activity was normalized to WT cells (n=6, *p<0.05 versus WT). FIG. 21C depicts a representative immunoblot of HIF-1a and Tubulin in PGC-1α/β KO myotubes treated with adenovirus overexpressing SIRT1 or empty vector as well as treatment with DMSO or with HIF stabilizing compound DMOG. FIG. 21D depicts NAD+/NADH ration measured in primary WT myoblasts treated with either 10 mM pyruvate, 10 mM lactate or vehicle for 24 h (n=4). […] FIG. 21J depicts mitochondrial DNA content analyzed by qPCR in control, HIF-1α DPA or HIF-2α DPA C2C12 cells treated with adenovirus overexpressing SIRT1 or empty vector. […] FIG. 21K depicts ARNT mRNA analyzed by qPCR in C2C12 cells infected with ARNT or nontargeting shRNA. […] FIG. 21L depicts mitochondrial DNA content analyzed by qPCR in C2C12 cells infected with ARNT or nontargeting shRNA. […] FIG. 21M depicts ND1, Cytb, COX1 and ATP6 mRNA analyzed by qPCR in C2C12 cells infected with ARNT or nontargeting shRNA. […] Values are expressed as mean±SEM. […]
For orientation: A western blot detects proteins with antibodies after separation by electrophoresis.

SMILES strings stand for the structures.

Consider `CC(=O)N(O)CCCCCNC(=O)CCC(=O)N(O)CCCCCNC(=O)CCC(=O)N(O)CCCCCN` [DFO, desferrioxamine], for which the “effect on induction of mitochondrial ETC genes by SIRT1 overexpression” value in assay [1] is recorded as “completely blocked”. Moreover, in assay [2], the “effect on NMN-induced expression of mitochondrially-encoded ETC genes” value is on record as “completely abolished”.
For `NC(=O)C1CCCc2c1[nH]c1ccc(Cl)cc21` (stereo not shown) [EX-527], the genome asynchrony result in assay [3] is “induced”. Further, the “expression of nuclear- and mitochondrial-encoded genes” value in assay [4] (in the presence of WT PGC-1α) was “decreased both nuclear- and mitochondrial-encoded genes”; in assay [4] (in the presence of the PGC-1α T177A/S538A mutant), “only the mitochondrial-encoded genes decreased”.
In the case of `CC(O)C(=O)O` (stereo not shown) [lactate], in assay [5], the “HIF-1α protein (immunoblot)” value is reported as “induces HIF-1α protein stabilization” and the “NAD+/NADH ratio” value is “decreasing”.
